Assay results reported in patent US9346802B2, “CARM1 inhibitors and uses thereof” (Epizyme, Inc., priority 2013, dated 2016).
pIC50: −log10 of the molar value.

Each compound was assayed against T1, Human CARM1 (PRMT4) (Homo sapiens, UniProt Q86X55) (assay: CARM1 enzyme assay on peptide substrate (3H-SAM Flashplate)). Conditions: CARM1 0.25 nM, 3H-SAM 30 nM, peptide 250 nM, 30 min preincubation; read-out: Biochem IC50.
T1 construct: Flag-CARM1-His was eluted with 200 ug/ml FLAG peptide in buffer A; made in house; host or cells: HEK 293F cells infected with recombinant baculovirus (pFastBacMam)
T1 sequence (Q86X55 1-585 isoform Q86X55-1): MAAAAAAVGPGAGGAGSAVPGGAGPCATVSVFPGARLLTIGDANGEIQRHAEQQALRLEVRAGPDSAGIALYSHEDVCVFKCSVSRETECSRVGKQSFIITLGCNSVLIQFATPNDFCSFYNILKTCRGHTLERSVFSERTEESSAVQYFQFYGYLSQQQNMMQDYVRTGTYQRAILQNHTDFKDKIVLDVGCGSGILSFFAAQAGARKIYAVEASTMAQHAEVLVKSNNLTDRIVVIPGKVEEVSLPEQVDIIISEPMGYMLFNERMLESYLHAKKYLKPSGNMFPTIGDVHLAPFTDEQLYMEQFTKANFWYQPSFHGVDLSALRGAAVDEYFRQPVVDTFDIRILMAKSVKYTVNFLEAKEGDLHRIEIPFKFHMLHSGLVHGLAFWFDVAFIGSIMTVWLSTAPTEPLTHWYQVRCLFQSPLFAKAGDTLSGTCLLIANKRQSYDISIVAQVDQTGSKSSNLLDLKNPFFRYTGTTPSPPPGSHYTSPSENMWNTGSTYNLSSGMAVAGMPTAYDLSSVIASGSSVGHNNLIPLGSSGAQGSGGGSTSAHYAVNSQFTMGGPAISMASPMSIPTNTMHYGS
Format: biochemical
Text: Peptide representative of human histone H3 residues 16-30 was synthesized with an N-terminal linker-affinity tag motif and a C-terminal amide cap by 21st Century Biochemicals. The peptide was purified by high-performance liquid chromatography (HPLC) to greater than 95% purity and confirmed by liquid chromatography mass spectrometry (LC-MS). The sequence was Biot-Ahx-[…]-amide and contained a monomethylated arginine at position 26 (SEQ ID NO.:1).
Human CARM1 (PRMT4) (NM_199141.1) transcript clone was amplified from an HEK 293 cDNA library, incorporating a flanking 5′ sequence encoding a FLAG tag ([…]) (SEQ ID NO.:2) fused directly to Ala 2 of CARM1 and 3′ sequence encoding a hexa His sequence ([…]) (SEQ ID NO.:3) fused directly to Ser 608. The gene sequence encoding isoform1 containing a deletion of amino acids 539-561 was amplified subsequently and subcloned into pFastBacMam (Viva Biotech).
Recombinant baculovirus were generated according to Bac-to-Bac kit instructions (Life Technologies). Protein over-expression was accomplished by infecting exponentially growing HEK 293F cell culture at 1.3×10^6 cell/ml with virus (MOI=10) in the presence of 8 mM sodium butyrate. Infections were carried out at 37° C. for 48 hours, harvested by centrifugation, and stored at −80° C. for purification.
Expressed full-length human Flag- and His-tagged CARM1 protein was purified from cell paste by anti-flag M2 affinity chromatography with resin equilibrated with buffer containing 20 mM Tris, 150 mM NaCl, 5% glycerol, pH 7.8. Column was washed with 500 mM NaCl in buffer A and Flag-CARM1-His was eluted with 200 ug/ml FLAG peptide in buffer A. Pooled fractions were dialyzed in 20 mM Tris, 150 mM NaCl, 5% glycerol and 1 mM DTT, pH 7.8. The purity of recovered protein was 94.
The assays were all performed in a buffer consisting of 20 mM Bicine (pH=7.6), 1 mM TCEP, 0.005% BSG, and 0.002% Tween 20, prepared on the day of use. Compounds in 100% DMSO (1 ul) were spotted into a polypropylene 384-well V-bottom plates (Greiner) using a Platemate Plus outfitted with a 384-channel head (Thermo Scientific). DMSO (1 ul) was added to Columns 11, 12, 23, 24, rows A-H for the maximum signal control and 1 ul of SAH, a known product and inhibitor of CARM1, was added to columns 11, 12, 23, 24, rows I-P for the minimum signal control. A cocktail (40 ul) containing the CARM1 enzyme was added by Multidrop Combi (Thermo-Fisher). The compounds were allowed to incubate with CARM1 for 30 min at room temperature, then a cocktail (10 ul) containing ^3H-SAM and peptide was added to initiate the reaction (final volume=51 ul). The final concentrations of the components were as follows: CARM1 was 0.25 nM, ^3H-SAM was 30 nM, peptide was 250 nM, SAH in the minimum signal control wells was 1 mM, and the DMSO concentration was 2%. The assays were stopped by the addition of non-radiolabeled SAM (10 ul) to a final concentration of 300 uM, which dilutes the ^3H-SAM to a level where its incorporation into the peptide substrate is no longer detectable. 50 ul of the reaction in the 384-well polypropylene plate was then transferred to a 384-well Flashplate and the biotinylated peptides were allowed to bind to the streptavidin surface for at least 1 hour before being washed once with 0.1% Tween20 in a Biotek ELx405 plate washer. The plates were then read in a PerkinElmer TopCount plate reader to measure the quantity of ^3H-labeled peptide bound to the Flashplate surface, measured as disintegrations per minute (dpm) or alternatively, referred to as counts per minute (cpm).
[formula] where dpm=disintegrations per minute, cmpd=signal in assay well, and min and max are the respective minimum and maximum signal controls.
[formula] where top and bottom are the normally allowed to float, but may be fixed at 100 or 0 respectively in a 3-parameter fit. The Hill Coefficient normally allowed to float but may also be fixed at 1 in a 3-parameter fit. […]

| Compound | pIC50 |
| --- | --- |
| CNCC(O)COc1cccc(-c2nc(NCCOC)cc(-c3cccc(C#N)c3)n2)c1 (centres unmarked) [Compound 23-1] | 6.00 to 7.00 |
| CNCC(O)COc1cc(Cl)cc(-c2nc(C3CC3)cc(N(C)C3CCOCC3)n2)c1 (centres unmarked) [Compound 28-1] | 6.00 to 7.00 |
| CNCC(O)COc1cccc(-c2nc(-c3ccnc(OC)c3)cc(N(C)CCC#N)n2)c1 (centres unmarked) [Compound 30-1] | 6.00 to 7.00 |
| CNCC(O)COc1cccc(-c2nc(-c3cc4ccccc4o3)cc(N(C)CCC#N)n2)c1 (centres unmarked) [Compound 35-1] | 6.00 to 7.00 |
| CNCC(O)COc1cccc(-c2nc(NCCOC)cc(-c3cccc4ncccc34)n2)c1 (centres unmarked) [Compound 39-1] | 6.00 to 7.00 |
| CNCC(O)COc1cccc(-c2nc(-c3cncnc3)cc(N(CCOC)CCOC)n2)c1 (centres unmarked) [Compound 43-1] | 6.00 to 7.00 |
| CNCC(O)COc1cccc(-c2nc(-c3cccc4ncccc34)cc(N(C)CCC#N)n2)c1 (centres unmarked) [Compound 44-1] | 6.00 to 7.00 |
| CNCC(O)COc1cc(Cl)cc(-c2nc(N[C@@H]3CCOC3)c(C)c(C3=CCOCC3)n2)c1 (some centres unmarked) [Compound 47-1] | 6.00 to 7.00 |
| CNCC(O)COc1cccc(-c2nc(-c3c(C)noc3C)cc(N(CCOC)CCOC)n2)c1 (centres unmarked) [Compound 52-1] | 6.00 to 7.00 |
| CNCC(O)COc1cccc(-c2nc(-c3ccc(C(F)(F)F)nc3)cc(N(C)CCC#N)n2)c1 (centres unmarked) [Compound 54-1] | 6.00 to 7.00 |
| CNCC(O)COc1cc(Cl)cc(-c2nc(-c3ccncc3)c(C)c(N(C)C3CCOCC3)n2)c1 (centres unmarked) [Compound 58-1] | 6.00 to 7.00 |
| CNCC(O)COc1cc(Cl)cc(-c2nc(-c3cc(C)nc(C)c3)c(C)c(N(C)C3CCOCC3)n2)c1 (centres unmarked) [Compound 63-1] | 6.00 to 7.00 |
| CNCC(O)COc1cc(Cl)cc(-c2nc(-c3ccnc(OC)c3)cc(N(CCOC)CCOC)n2)c1 (centres unmarked) [Compound 65-1] | 6.00 to 7.00 |
| CNCC(O)COc1cccc(-c2nc(NCCCN3CCCC3=O)cc(-c3ccc4c(c3)OCCO4)n2)c1 (centres unmarked) [Compound 66-1] | 6.00 to 7.00 |
| CNCC(O)COc1cccc(-c2nc(-c3ccc(C(F)(F)F)nc3)cc(N(CCOC)CCOC)n2)c1 (centres unmarked) [Compound 67-1] | 6.00 to 7.00 |
| CNCC(O)COc1cccc(-c2nc(NCCCN3CCCC3=O)cc(-c3ccc(OC)c(OC)c3)n2)c1 (centres unmarked) [Compound 68-1] | 6.00 to 7.00 |
| CNCC(O)COc1cc(Cl)cc(-c2nc(-c3cn4ccccc4n3)c(C)c(N(C)C3CCOCC3)n2)c1 (centres unmarked) [Compound 69-1] | 6.00 to 7.00 |
| CNCC(O)COc1cccc(-c2nc(-c3ccc(S(C)(=O)=O)cc3)cc(N(CCOC)CCOC)n2)c1 (centres unmarked) [Compound 72-1] | 6.00 to 7.00 |
| CNCC(O)COc1cccc(-c2nc(NCCCN3CCCC3=O)cc(-c3ccc(S(C)(=O)=O)cc3)n2)c1 (centres unmarked) [Compound 73-1] | 6.00 to 7.00 |
| CNCC(O)COc1cc(Cl)cc(-c2nc(-c3ccc4c(c3)OCCO4)cc(N(CCOC)CCOC)n2)c1 (centres unmarked) [Compound 74-1] | 6.00 to 7.00 |
| CNCC(O)COc1cc(Cl)cc(-c2nc(-c3ccc(OC)c(OC)c3)cc(N(CCOC)CCOC)n2)c1 (centres unmarked) [Compound 75-1] | 6.00 to 7.00 |

Second part, the compound after the results:

| pIC50 | Compound |
| --- | --- |
| 6.00 to 7.00 | CNCC(O)COc1cccc(-c2cc(N(C)C3CCOCC3)nc(C)n2)c1 (centres unmarked) [Compound 1-2] |
| 6.00 to 7.00 | CNCC(O)COc1cccc(-c2cc(NC3CCOCC3)nc(N(C)C)n2)c1 (centres unmarked) [Compound 3-2] |
| 5.00 to 5.52 | C#Cc1cc(NC2CCOCC2)nc(-c2cccc(OCC(O)CNC)c2)n1 (centres unmarked) [Compound 5-1] |
| 6.00 to 7.00 | CNCC(O)COc1cccc(-c2nc(C)cc(N(C)C3CCOCC3)n2)c1 (centres unmarked) [Compound 6-1] |
| 6.00 to 7.00 | C#Cc1cc(N(C)C2CCOCC2)nc(-c2cccc(OCC(O)CNC)c2)n1 (centres unmarked) [Compound 7-1] |
| 6.00 to 7.00 | CNCC(O)COc1cccc(-c2cc(NC3CCOCC3)nc(NC(C)C)n2)c1 (centres unmarked) [Compound 9-2] |
| 6.00 to 7.00 | CNCC(O)COc1cccc(-c2cc(N[C@H]3CCOC3)nc(C3CCOCC3)n2)c1 (some centres unmarked) [Compound 10-2] |
| 6.00 to 7.00 | CNCC(O)COc1cccc(-c2cc(NC3CCOCC3)nc(-c3ccncc3)n2)c1 (centres unmarked) [Compound 11-2] |
| 6.00 to 7.00 | CNCC(O)COc1cccc(-c2nc(NC3CCOCC3)cc(NC3CC3)n2)c1 (centres unmarked) [Compound 12-1] |
| 6.00 to 7.00 | CNCC(O)COc1cccc(-c2cc(NC3CCOCC3)nc(N3CCOCC3)n2)c1 (centres unmarked) [Compound 12-2] |
| 6.00 to 7.00 | CNCC(O)COc1cccc(-c2nc(N3CCOCC3)nc(N[C@H]3CCOC3)c2C)c1 (some centres unmarked) [Compound 13-2] |
| 6.00 to 7.00 | CNCC(O)COc1cccc(-c2nc(NC(C)C)cc(NC3CCOCC3)n2)c1 (centres unmarked) [Compound 16-1] |
| 5.52 to 6.00 | C=C(Cl)c1cc(NC2CCOCC2)nc(-c2cccc(OCC(O)CNC)c2)n1 (centres unmarked) [Compound 17-1] |
| 6.00 to 7.00 | CNCC(O)COc1cccc(-c2nc(C(C)C)c(C)c(N(C)C3CCOCC3)n2)c1 (centres unmarked) [Compound 21-1] |
| 6.00 to 7.00 | CNCC(O)COc1cccc(-c2nc(NC3CCOCC3)cc(N3CCOCC3)n2)c1 (centres unmarked) [Compound 27-1] |
| 6.00 to 7.00 | CNCC(O)COc1cc(Cl)cc(-c2nc(C(C)C)cc(N(C)C3CCOCC3)n2)c1 (centres unmarked) [Compound 31-1] |
| 6.00 to 7.00 | CNCC(O)COc1cccc(-c2nc(NC3CCOCC3)cc(-c3cccc(C#N)c3)n2)c1 (centres unmarked) [Compound 38-1] |
| 6.00 to 7.00 | CNCC(O)COc1cccc(-c2nc(-c3ccnc(C)c3)cc(N(C)C3CCOCC3)n2)c1 (centres unmarked) [Compound 40-1] |
| 6.00 to 7.00 | CNCC(O)COc1cccc(-c2nc(NC3CCOCC3)cc(-c3cnn(CC(C)C)c3)n2)c1 (centres unmarked) [Compound 51-1] |
| 5.52 to 6.00 | CNCC(O)COc1cccc(-c2nc(-c3ccc(OC)c(OC)c3)cc(N(C)C3CCOCC3)n2)c1 (centres unmarked) [Compound 61-1] |
